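Step 1: Grow cells in 96-well plates. Step 2: Expose to compound for 48 hours at 5 concentrations. Step 3: Interpolate endpoints linearly; if unreached, use highest concentration. GI50: concentration for 50% inhibition of growth. At the TGI there is no net growth.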
Assays:
Assay in all cases: inhibition of tumour cell growth, NCI panel, 48 h
SK-MEL-28 melanoma = test system: SK-MEL-28 melanoma
NCI/ADR-RES ovarian = test system: NCI/ADR-RES ovarian
MDA-MB-231 breast = test system: MDA-MB-231 breast
OVCAR-4 ovarian = test system: OVCAR-4 ovarian
NCI-H226 lung = test system: NCI-H226 lung
CCRF-CEM leukemia = test system: CCRF-CEM leukemia
UACC-62 melanoma = test system: UACC-62 melanoma
NCI-H460 lung = test system: NCI-H460 lung

SMILES	GI50 (SK-MEL-28 melanoma)	TGI (SK-MEL-28 melanoma)	GI50 (NCI/ADR-RES ovarian)	TGI (NCI/ADR-RES ovarian)	GI50 (MDA-MB-231 breast)	TGI (MDA-MB-231 breast)	GI50 (OVCAR-4 ovarian)	TGI (OVCAR-4 ovarian)	GI50 (NCI-H226 lung)	TGI (NCI-H226 lung)	GI50 (CCRF-CEM leukemia)	TGI (CCRF-CEM leukemia)	GI50 (UACC-62 melanoma)	TGI (UACC-62 melanoma)	GI50 (NCI-H460 lung)	TGI (NCI-H460 lung)
Cc1ccc(-c2nc(N)nc3c2nnn3Cc2cccc(CO[C@H]3CCOC3)n2)o1	> 100 µM	> 100 µM	> 100 µM	> 100 µM	> 100 µM	> 100 µM	66.5 µM	> 100 µM	> 100 µM	> 100 µM	> 100 µM	> 100 µM	> 100 µM	> 100 µM	> 100 µM	> 100 µM
O=S(=O)(c1ccc(N=C2NN=C(c3c[nH]c4ccccc34)CS2)cc1)N1CCOCC1	37.7 µM	> 100 µM	20.6 µM	> 100 µM	45.3 µM	> 100 µM	15.6 µM	> 100 µM	7.74 µM	> 100 µM	4.69 µM	58.8 µM	26.8 µM	> 100 µM	5.04 µM	> 100 µM
C=CCC(C(=O)O)c1ccccc1 (stereo unspecified)		> 100 µM		> 100 µM		> 100 µM		> 100 µM		> 100 µM		> 100 µM		> 100 µM		> 100 µM
CC[Si](CC)(CC)OC[C@]1([C@@H]2COC(C)(C)O2)CC=CC(=O)O1	19.8 µM	85.3 µM	32.1 µM	> 100 µM	51.1 µM	> 100 µM	85.8 µM	> 100 µM			6.46 µM	> 100 µM	25.6 µM	> 100 µM	33.9 µM	> 100 µM
Cn1nc(-c2ccccc2)nc1[N+](=O)[O-]		> 10 µM		> 10 µM		> 10 µM		> 10 µM		> 10 µM		> 10 µM		> 10 µM		> 10 µM
COc1cc2cc(C(=O)Nc3cc(N)c4ccccc4c3CCCl)[nH]c2c(OC)c1OC	0.0923 µM		0.0329 µM	1.91 µM			0.0733 µM	0.325 µM	0.115 µM	0.308 µM	< 0.005 µM	0.188 µM	0.0717 µM	0.154 µM	0.00913 µM	0.0396 µM
COC(=O)c1c2c(c(C)[n+]([O-])c1C)C(=O)C=C(NCc1ccc(OC)cc1)C2=O	3.2 µM	10 µM	1.03 µM	4.85 µM	0.959 µM	5.41 µM	0.655 µM	1.79 µM	2.66 µM	7.94 µM	1.29 µM	14 µM	0.85 µM	2.51 µM	1.29 µM	4.69 µM
C=CCN1C=CC(=O)[C@H](O[Si](C)(C)C(C)(C)C)[C@@H]1/C=C/c1ccccc1	15 µM	28.6 µM	13.3 µM	26.8 µM	14.6 µM	29.8 µM	11.6 µM	24.7 µM	17.9 µM	36.9 µM	15.2 µM	40.1 µM	12.1 µM	26.7 µM	8.38 µM	23.8 µM
COc1ccc(-c2nc3ncccn3c2/C=C/C(=O)c2cc(OC)c(OC)c(OC)c2)cc1	1.65 µM	3.27 µM	1.56 µM	4.86 µM	2.73 µM	17.2 µM	2.91 µM	14.3 µM	2.28 µM	6.92 µM	4.01 µM	> 100 µM	1.82 µM	3.42 µM	1.43 µM	2.74 µM
CC1(C)CC(n2cnc(-c3ccc(F)cc3)c2-c2ccnc(N)n2)CC(C)(C)N1	> 25 µM	> 25 µM	> 25 µM	> 25 µM	> 22.7 µM	> 25 µM	7.54 µM	> 25 µM	> 13.9 µM	> 25 µM	> 25 µM	> 25 µM	> 25 µM	> 25 µM	11.9 µM	> 25 µM
CCN=c1cc2sc3cc(NCC)c(C)cc3nc-2cc1C	11.7 µM	25.6 µM	1.77 µM	7.31 µM	0.334 µM	11.1 µM	0.237 µM	2.31 µM	10.1 µM	29 µM	0.76 µM	17.4 µM	6.88 µM	21.8 µM	0.821 µM	5 µM
C=CCN(CC=C)C(=O)c1cc(C)nc2c1c(=O)n(-c1ccccc1)c(=O)n2CC(O)CN1CCN(c2ncccn2)CC1 (stereo unspecified)	60.9 µM	> 100 µM	> 100 µM	> 100 µM	> 100 µM	> 100 µM	80.3 µM	> 100 µM	> 100 µM	> 100 µM	> 100 µM	> 100 µM	> 100 µM	> 100 µM	26.7 µM	> 100 µM
CCCC(C)C[C@@H](C)CC(C)/C=C(\C)c1oc(=O)c(C)c(O)c1C (stereo partly specified) (tested in a mixture with another compound)		28.2 µM						26.6 µM		30.4 µM						25.1 µM
Cc1cc(N2CCCC2)nc(NC2CCCC(Nc3ccnc4cc(Cl)ccc34)C2)n1 (stereo unspecified)	1.77 µM	3.43 µM	1.78 µM	5.69 µM			1.52 µM	5.27 µM	1.91 µM	3.92 µM	0.408 µM	3.37 µM	1.92 µM	3.57 µM		
C=C(C)CN(CC#N)CC(=C)C		> 100 µM		> 100 µM		> 100 µM		> 100 µM		> 100 µM		> 100 µM		> 100 µM		
O=C([CH-]C(=O)c1ccccc1)c1ccccc1.O=C([CH-]C(=O)c1ccccc1)c1ccccc1.O=C([CH-]C(=O)c1ccccc1)c1ccccc1.[OH3+].[Y+3]	10.8 µM	40.2 µM					8.77 µM	46 µM					5.73 µM	22.3 µM	4.29 µM	34.6 µM
Cc1cc(-c2nnc(N)nc2-c2ccc(F)cc2)cc(Cl)n1	> 100 µM	> 100 µM	57.4 µM	> 100 µM	70.2 µM	> 100 µM	97.3 µM	> 100 µM	46.9 µM	> 100 µM	93.1 µM	> 100 µM			> 100 µM	> 100 µM

Reference: PubChem BioAssay (NCI)
